Patent publication US12383653B2, “Neutral multidomain peptide hydrogels and uses thereof” (William Marsh Rice University, priority 2018, dated 2025)
“Also recorded” adds a separate entry of the source. Where a SMILES comes first, the peptide text is derived from it. [ ]: non-standard residue; d: D form. Hyp = O=C(O)[C@@H]1C[C@@H](O)CN1

Experiments:
[1] = Hydrogel formation (inverted-vial test, pH, ionic strength, buffers); format: physicochemical
Protocol: Hydrogel Formation. Peptide solutions of O5 were prepared at 1% by weight (4.2 mM) in 149 mM sucrose and 0.5×HBSS. This buffer system was chosen to be consistent with prior MDP experiments and find optimum gelling conditions for future in vivo and in vitro work. Peptide solutions were sonicated using a Microson Ultrasonic Cell Disruptor with a 2 mm microprobe. The instrument frequency was 22.5 kHz and a power output up to 10 watts (RMS) was used. Solutions were sonicated at room temperature for 1 or 10 cycles, where each cycle consisted of 10 pulses and 1 min relaxation time between cycles. For the study of hydrogelation of O5, K2 and E2 at different pH values and ionic strength, 1% by weight peptide solutions were prepared in deionized water, PBS, or HBSS. pH was adjusted using HCl or NaOH 0.1 M solutions.

[2] = In vivo host response, subcutaneous injection model; set-up: species or system mice
Protocol: In vivo compatibility studies. All experimental procedures were approved by the Rice University Institutional Animal Care and Use Committee (IACUC) and performed according to the Animal Welfare Act and NIH guidelines. Female C57BL/6 mice from 8 to 12 weeks were purchased from Charles River (Wilmington, MA). Mice were injected with 4 implants of 100 μL 1% by weight O5 hydrogel in the dorsal subcutaneous space using a 26-gauge needle. At days 3, 7, and 14 mice were euthanized, and implants were extracted, fixed with 10% neutral buffered formalin and processed into paraffin blocks. Tissue was sectioned at 5 μm thickness and stained with hematoxylin and eosin, and Masson's trichome under standard procedures. For fluorescent immunostaining, tissue sections were deparaffinized, hydrated and antigens were retrieved by boiling in sodium citrate buffer (10 mM sodium citrate, 0.05% Tween 20 at pH 6.0). Tissues were permeabilized with 0.5% Triton X and blocked with 1% BSA in PBS for 30 min. Tissues were incubated overnight at 4° C. with rat anti-Mouse F4/80 monoclonal antibody (1:50, clone BM8, eBioscience™, Cat #14-4801-82). Then, samples were incubated for 1 hour with goat anti-rat AlexaFluor® 568 (1:500, Invitrogen), followed by mounting with ProLong® Gold Antifade reagent with DAPI. Tissue slides were analyzed by confocal fluorescent microscopy.

NIH-3T3 fibroblasts = test: 3D culture cytocompatibility, Calcein AM / Ethidium homodimer-1 viability and cell morphology; format: cell-based
Protocol: (§1) Cytocompatibility and cell viability studies. All cell culture materials, not otherwise specified, were purchased from Gibco, Life Technologies. NIH-3T3 fibroblast cells were cultured in Dulbecco's Modified Eagle Medium (DMEM) supplemented with 10% Fetal Bovine Serum (FBS), 2% L-glutamine (200 mM), 1% sodium pyruvate (100 mM), and 1% pen-strep solution (5000 units/mL of penicillin and 5 mg/mL of streptomycin, Sigma-Aldrich, St. Louis, MO). Cells were maintained at 37° C. and 5% CO2 with humidity and split when reaching 80%-90% confluency by treatment with 0.25% trypsin-EDTA and neutralization with complete media. Cells were centrifuged for 6 min at 1600 rpm, then the cell pellet was dispersed in HBSS, counted and adjusted to the required concentration. 3D cell culture in K2 hydrogel was achieved by mixing a 2% by weight peptide stock solution in 298 mM sucrose with a cell suspension of 2×10^6 cells/mL in HBSS. The final concentration was 1% by weight K2 hydrogel in 149 mM sucrose and 0.5×HBSS with 1×10^6 cells/mL. For O5 peptide, hydrogel was prepared by sonication using only 90% of the required 149 mM sucrose-0.5×HBSS to obtain a 1% by weight concentration, the remaining 10% was added as a cell suspension, and mixed by pipetting into the gel to obtain a final concentration of 1×10^6 cells/mL evenly distributed though the volume of the hydrogel. 70 μL of seeded hydrogels were cultured in a Lab-Tek 16-well glass chamber ([…], Thermo Fisher, Rochester, NY) with 200 μL of medium and fed every 2 days by replacing 100 μL with fresh media. Cell viability was analyzed using a live/dead viability kit (Invitrogen, Thermo Fisher, Carlsbad, CA). At specific time points, the medium was removed, and gels were rinsed with 1×PBS, then 100 μL of staining solution containing 2 μM Calcein AM and 4 μM Ethidium homodimer-1 in DPBS were added. Cells were incubated from 15 to 30 min and imaged using a Nikon A1 Rsi fluorescent confocal microscope (Nikon Instruments, Tokyo, Japan). Three z-stack images of 100 μm deep per sample were taken at 20× using a 488 nm green channel and 561 nm red channel lasers. Images were processed with NIS Element and live/dead cell counting was performed on Imaris 3D/4D Image Processing software (Bitplane, Concord, MA).
(§2) To evaluate the cell morphology, hydrogels were rinsed with PBS and fixed with 10% buffered formalin for 30 min Cells were treated with 0.5% Triton X for 10 min and 100 mM glycine for 10 min, followed by 10% Bovine Serum Albumin (BSA) in HBSS block solution. Then cells were stained for filamentous actin with Alexa Fluor® 488-Phalloidin and for the nuclei with ProLong® Gold Antifade DAPI mounting media. Cell in the hydrogels were analyzed by confocal microscopy using a 40× water objective and processed as described.

[3] = as above; format: cell-based; details: mouse; day 1 after encapsulation, 1 wt.% hydrogel; read-out: percentage of viable cells
Protocol: as §1, §2

[4] = Secondary structure estimation from circular dichroism in TFE, least square linear method; format: physicochemical; details: TFE at 25° C., 1 wt.%
Protocol: Circular Dichroism (CD) spectroscopy. For secondary structure characterization, peptide solutions of 1% by weight (molar concentration is included in Table 2) were prepared in 2,2,2-trifluoroethanol (TFE, Sigma Aldrich, St. Louis, MO). CD spectra acquisition was performed in a CD Jasco J-810 spectropolarimeter (Jasco Inc., Easton, MD) using a 0.01 mm cuvette. Data were collected at room temperature from 180 to 250 nm at a speed of 50 nm/min, with a 0.1 nm data pitch and the spectra were averaged over 5 scans. To study the hydrogelation of O5, 1% by weight peptide solutions were made in 149 mM sucrose solution in 0.5× Hank's Balanced Salt Solution (HBSS, Life Technologies) and analyzed as previously described.
To estimate the secondary structure of O peptide series, data fitting using the least square linear method was performed in MATLAB (Mathworks, Natick, MA). (Hyp)6, O1(SL)6O1 and K2(SL)6K2 were used as basis spectra for polyproline type II, β-sheet and α-helix, respectively (FIG. 7).

[5] = Oscillatory rheology of 1 wt.% hydrogel; format: physicochemical
Protocol: Oscillatory Rheology. Rheological properties of O5 hydrogel were analyzed by oscillatory rheology using a TA Instruments AR-G2 rheometer (TA Instruments, New Castle, DE). Hydrogels were prepared 24 h before the analysis as described above. 150 μL of 1% by weight peptide hydrogels were transferred from a cut syringe onto the rheometer stage equipped with a 12 mm stainless-steel parallel plate set to a 1000 μm gap height. The following program was used to monitor the storage modulus (G′) and loss modulus (G″) under various conditions as has been previously published (Li et al., 2017). Strain sweep analysis was performed using an applied strain of 0.01%-200% at a frequency of 1 rad/s. Frequency sweep analysis was performed under 1% strain at 0.1-100 rad/s. Shear recovery analysis was performed by subjecting the peptide sample to 1% strain for 20 min, then 200% for 1 min, and finally 1% for 20 min, allowing for disruption of the hydrogel and monitoring of G′ and G″ recovery.

CC(=O)N1C[C@H](O)C[C@H]1C(=O)N1C[C@H](O)C[C@H]1C(=O)N1C[C@H](O)C[C@H]1C(=O)N1C[C@H](O)C[C@H]1C(=O)N1C[C@H](O)C[C@H]1C(=O)N[C@@H](CO)C(=O)N[C@@H](CC(C)C)C(=O)N[C@@H](CO)C(=O)N[C@@H](CC(C)C)C(=O)N[C@@H](CO)C(=O)N[C@@H](CC(C)C)C(=O)N[C@@H](CO)C(=O)N[C@@H](CC(C)C)C(=O)N[C@@H](CO)C(=O)N[C@@H](CC(C)C)C(=O)N[C@@H](CO)C(=O)N[C@@H](CC(C)C)C(=O)N1C[C@H](O)C[C@H]1C(=O)N1C[C@H](O)C[C@H]1C(=O)N1C[C@H](O)C[C@H]1C(=O)N1C[C@H](O)C[C@H]1C(=O)N1C[C@H](O)C[C@H]1C(N)=O [Peptide O5, Ac-OOOOOSLSLSLSLSLSLOOOOO-CONH2] (Ac-[Hyp][Hyp][Hyp][Hyp][Hyp]SLSLSLSLSLSL[Hyp][Hyp][Hyp][Hyp][Hyp]-NH2)
state of the peptide at 10 mg/mL ([1]; 10 mg/mL): forms a hydrogel | hydrogelation in cell culture media ([1]; 1% by weight in 149 mM sucrose and 0.5×HBSS, ultrasonication): forms a self-supportive hydrogel | hydrogel formation at acidic, neutral and basic pH ([1]; 1% by weight, pH adjusted with HCl or NaOH, inverted-vial test / CD): remains a hydrogel at acidic, neutral and basic pH; also recorded: remains a hydrogel at all pH | pH range over which peptide remains a hydrogel ([1]; also in deionized water, PBS and HBSS): 3-11 | inflammatory response ([2]; compared to K2 hydrogel): weaker inflammatory response | implant degradation ([2]; day 14): almost completely degraded | collagen deposition / remodeling ([2]; day 14, Masson's trichrome): natural collagen is observed | fibrous encapsulation ([2]; subcutaneous implant, in contrast with PEG): not fibrously encapsulated | cell spreading and adhesion to the material (NIH-3T3 fibroblasts; 5 days encapsulated, actin staining): do not spread and adhere to the material | cell recovery after extraction from the hydrogel (NIH-3T3 fibroblasts; after 5 days of culture): recover, grow, and proliferate | percentage of viable cells (NIH-3T3 fibroblasts; day 3 compared with day 1): relatively unchanged | cytotoxicity / viability over the culture (NIH-3T3 fibroblasts; days 1 to 5, 1 wt.% hydrogel): good initial viability, which remains constant throughout the experiment | cell proliferation / viable cell density in the gel (NIH-3T3 fibroblasts; up to day 5): not observed to proliferate | viability at 24 h, 1 % by weight [3]: ~70% | % PPII [4]: 50% | % α-helix [4]: 40.5% | % β-sheet [4]: 9.5% | Predominant Structure [4]: PPII | loss modulus (G″) [5]: 1.7±0.5 Pa | storage modulus (G′) [5]: 23.3±8.7 Pa
